Consider six molecules from ChEMBL document CHEMBL1955759, “Influence of susceptibility to hydrolysis and hydrophobicity of arylsemicarbazones on their anti-nociceptive and anti-inflammatory activities” (Eur J Med Chem, 2012).

Activity calls are given as the source filed them. No cut-off for these calls is given here.

For data set [1], the system named is Rattus norvegicus. The data set can be described thus: Antiinflammatory activity in Wistar rat assessed as inhibition of carrageenan-induced paw edema at 0.31 mmol/kg, ip administered 30 mins prior to carrageenan-challenge measured up to 6 hrs. The class given is functional, organism-based. On the technique in general: The carrageenan paw model is a standard test of acute inflammation.

In data set [2] the test system is Mus musculus. The data set can be described thus: Antinociceptive activity in Swiss mouse assessed inhibition of formaldehyde-induced paw licking at 0.31 mmol/kg, ip administered 30 mins prior to formaldehyde-challenge measured up to 5 mins. The class given is functional, organism-based.
Data set [3] has as its system Rattus norvegicus. The data set can be described thus: Antiinflammatory activity in Wistar rat assessed as inhibition of carrageenan-induced paw edema at 0.62 mmol/kg, ip administered 30 mins prior to carrageenan-challenge measured up to 6 hrs. The class given is functional, organism-based.
Data set [4] relates to Mus musculus. The data set can be described thus: Antinociceptive activity in Swiss mouse assessed inhibition of formaldehyde-induced paw licking at 0.31 mmol/kg, ip administered 30 mins prior to formaldehyde-challenge measured from 15 to 30 mins. The class given is functional, organism-based.
A short description of data set [5]: n-Octanol-water distribution coefficient, log K of the compound by shake flask method. The class given is physicochemical. The settings on record: read-out: log KOW.
Data set [6] concerns Mus musculus. The data set can be described thus: Antinociceptive activity in Swiss mouse assessed as inhibition of zymosan A-induced writhing response at 0.62 mmol/kg, ip administered 30 mins prior to zymosan A-challenge. The format is functional, organism-based. (In writhing tests, fewer writhes than in controls are read as antinociception.)
In data set [7] the test system is Mus musculus. The data set can be described thus: Antinociceptive activity in Swiss mouse assessed as inhibition of zymosan A-induced writhing response at 0.31 mmol/kg, ip administered 30 mins prior to zymosan A-challenge. The class given is functional, organism-based.
Data set [8] relates to Mus musculus. The data set can be described thus: Antinociceptive activity in Swiss mouse assessed inhibition of formaldehyde-induced paw licking at 0.62 mmol/kg, ip administered 30 mins prior to formaldehyde-challenge measured up to 5 mins. The format is functional, organism-based.
Data set [9] deals with Rattus norvegicus. The data set can be described thus: Antiinflammatory activity in Wistar rat assessed as inhibition of carrageenan-induced paw edema at 0.62 mmol/kg, ip administered 30 mins prior to carrageenan-challenge measured at 2 hrs. The class given is functional, organism-based.
Data set [10] relates to Mus musculus. The data set can be described thus: Antinociceptive activity in ip dosed Swiss mouse assessed as inhibition of zymosan A-induced writhing response administered 30 mins prior to zymosan A-challenge. The class given is functional.
The test system of data set [11] is Rattus norvegicus. The data set can be described thus: Antiinflammatory activity in Wistar rat assessed as inhibition of carrageenan-induced paw edema at 0.31 mmol/kg, ip administered 30 mins prior to carrageenan-challenge measured at 2 hrs. The format is functional, organism-based.
In data set [12] the test system is Mus musculus. The data set can be described thus: Antinociceptive activity in Swiss mouse assessed inhibition of formaldehyde-induced paw licking at 0.62 mmol/kg, ip administered 30 mins prior to formaldehyde-challenge measured from 15 to 30 mins. The format is functional, organism-based.
Data set [13] deals with Mus musculus. The data set can be described thus: Neurotoxicity in Swiss mouse assessed as motor coordination by measuring change in time spent on rotating rod at 0.62 mmol/kg, ip administered 30 mins prior to testing. As to conditions: in vivo, 0.5 h. The format is toxicity, organism-based.
The subject of data set [14] is Mus musculus. The data set can be described thus: Antinociceptive activity in Swiss mouse assessed as inhibition of zymosan A-induced writhing response at 0.16 mmol/kg, ip administered 30 mins prior to zymosan A-challenge. The format is functional, organism-based.

On to `NNC(N)=O`, for which the inhibition result in [1], in [3] and in data set [4] was “Active” in each case. Moreover, the inhibition result in data set [2] is “inactive”.
For the molecule `NC(=O)N/N=C/c1ccc(O)cc1`, in [5], the logP came out at 0.31. The inhibition result in [6] and in data set [7] was “inactive” in each case.
Turning to `NC(=O)N/N=C/c1cccc(O)c1`, the logP in data set [5] is 0.43. Besides, the inhibition entry in data set [6] and in data set [7] was “inactive” each time.
As for `NC(=O)N/N=C/c1ccccc1O`, the inhibition result in [8], in data set [1] and in data set [3] was “inactive” each time. Also, the inhibition result in data set [9], in [11], in data set [6], in data set [12] and in data set [7] was “Active” throughout. In addition, the MED in data set [10] was determined as 0.16 mmol/kg. Moreover, the logP in [5] was found to be 0.85. In addition, the Activity entry in data set [13] is “Non-toxic”.
As to `O=Cc1ccccc1`, the inhibition entry in data set [4] is “inactive”.
In the case of `NC(=O)N/N=C/c1ccccc1`, the inhibition result in data set [14], in data set [1] and in [3] was “inactive” each time. In data set [5], the logP turned out to be 0.91. Also, the inhibition result in data set [2] and in data set [4] was “Active” each time.
